From US11116799B2, “Generation of uniform hepatocytes from human embryonic stem cells by inhibiting TGF-beta and methods of maintaining hepatic cultures” (Wisconsin Alumni Research Foundation, priority 2016, dated 2021)
Each block holds one compound with its values, some of them ahead of it.

Assays:
[1] = tested on: primary mouse hepatocytes; assay: RNA-Seq gene expression in primary mouse hepatocytes treated with kinase inhibitors; conditions: 10 μM, 72 hours
From the text: The next step was to determine if the PI3/Akt and MAPK pathways are involved in maintenance of hepatocyte maturation. We investigated whether small molecule inhibition of these pathways would mimic let-7's action and reduce the loss of mature function of hepatocytes in culture after removal from their microenvironment. […] Then, expression of the top ten important metabolic enzymes (CYPs, UGTs and transporters) by RNA-Seq with uncultured fresh hepatocytes and control vehicle hepatocytes treated for 72 hours was compared.
Hepatocytes from 6 black mice livers were isolated by perfusion following standard protocol and cultured on Matrigel coated plates in hepatocyte growth medium (Promocell). Whole developing livers from 6 black mice were used for RNA isolation with Trizol for let-7c measurements.
Total RNA (including microRNA) from all cells, which were not mentioned otherwise, were isolated using RNAeasy Plus Kit […] following manufacturers protocol. RNA-Seq was performed by LM-Seq (Illumina). MicroRNAs were sequenced using Illumina's small RNA sequencing kit. Expression of let-7 and U6 snoRNA were measured by quantitative PCR using ABI's kit. Let-7c expression levels were normalized by U6 snoRNA expression (RQ or relative quantity values, error bars representing standard error, RQ min and RQ max).
Multiple batches of cryopreserved induction qualified human hepatocytes (each batch being from one donor) were purchased from Life Technologies and cultured on Matrigel coated plates in hepatocyte growth medium (PromoCell). For dedifferentiation studies, hepatocytes from batches Hu4260, Hu8135, Hu4279 and Hu8137 were used after mixing equal number of live cells. For small molecule treatments, batch Hu4260 was used. Mouse hepatocytes were isolated from Black 6 mice livers by perfusion following standard protocol and cultured on Matrigel coated plates in hepatocyte growth medium (Promocell).
Total RNA were isolated using RNAeasy Plus Kit (Qiagen) following manufacturers protocol and qualified with the Life Technologies Qubit fluorometer and Agilent Bioanalyzer. […] Final indexed cDNA libraries were pooled and sequenced on an Illumina HiSeq 2500. Base-calling and demultiplexing were performed using Casava (v1.8.2). Sequences were filtered and trimmed to remove low quality reads, adapters, and other sequencing artifacts. The remaining reads were aligned to a reference database comprising only RefSeq-validated transcripts (i.e., assigned an “NM_” accession). Mouse samples were aligned to the mm10 assembly, and human samples were aligned to the hg19 assembly. […] Reads with more than 200 alignments were excluded from further analysis. […] All RNA-seq results have been deposited at NCBI's GEO under Accession No. GSE94353.
The inventors next investigated whether the MAPK and PI3/Akt pathways contributed to the dedifferentiation of hepatocytes. […] Rapamycin was included as a control, which is an inhibitor of the mTOR pathway, a serine/threonine kinase involved in cell signaling not identified as a key pathway in our analysis.

[2] = tested on: primary human hepatocytes (PHHs); assay: RNA-Seq gene expression in MAPK inhibitor treated primary human hepatocytes; type: cell-based
Protocol: […]. […] […].
For small RNA-Seq profiling, hepatocytes from Hu8082 were used; for de-differentiation time course and let-7c transduction, hepatocytes from Hu4260, Hu8135, Hu4279 and Hu8137 were used. For both experiments, cells from all 4 donors were mixed in equal numbers after assessment of viability. For small molecule treatments, batch Hu4260 was used.
RNA-Seq was performed by LM-Seq (Illumina).
For small molecule treatments, batch Hu4260 was used.
. To ascertain that the increase in metabolic enzymes took place through specific MAPK inhibition, PHHs were treated with a second MAPK inhibitor, PD0325901, for 72 hours, followed by RNA-Seq analysis (Supplementary Table 4). […].

HepG2 cells = assay: HepG2 viability / cell growth (cell counting by dye exclusion); type: cell-based, human; conditions: HepG2, 72 hours, compared to vehicle control
Protocol: CYP2C9 and 3A4 metabolism were measured using CYP450 Glo assay (Promega). In short, substrates were added to the media and incubated for 72 hours and the amount of metabolites generated were measured by adding the detection reagent and quantifying the luminescence in a Tecan® plate reader. Background was measured by incubating the substrates for 72 hours in the same media without cells. Cell counting for proliferation assay was carried out by dye exclusion in an automated cell counter (ThermoFisher).

hepatocytes = assay: Robotic compound screen for albumin and AFP expression in hepatocytes; type: cell-based
Protocol: A robotic screen was performed to determine compounds that increase expression of albumin in hepatocytes as an indicator that the compounds play a role in hepatocyte maturation. 1200 compounds were screened and 400 compounds analyzed for their effects on hepatocytes with regard to the levels of albumin and fetal marker AFP.

[3] = tested on: H9-ALB-GFP/AFP-Tomato (dual clone 1) derived hepatocytes; assay: RNA-Seq of ES-derived hepatocytes treated with Stauprimide; type: cell-based, human; design: HNF4A RNA-Seq expression / ADH4 RNA-Seq expression / BAAT RNA-Seq expression / SERPINC1 RNA-Seq expression / SERPINA1 RNA-Seq expression / ALB RNA-Seq expression / AFP RNA-Seq expression / UGT1A9 RNA-Seq expression / UGT1A1 RNA-Seq expression / UGT1A6 RNA-Seq expression: unit not given here; conditions: dual clone 1 ES-derived hepatocytes (CDI), 72 hrs
Protocol: The effects of Stauprimide in maturation of ES-derived hepatocytes was validated by RNA-Seq as described above. Briefly, the H9-ALB-GFP/AFP-Tomato (dual clone 1) were differentiated to a pure population of hepatocytes by CDI (Madison, Wis.) and treated with Stauprimide for 72 hours. […] Thus, Stauprimide is able to increase expression of mature hepatocyte genes and reduce the expression of the fetal marker AFP.

[4] = tested on: H9-ALB-GFP/AFP-Tomato (dual clone 1); assay: Gene expression of hepatocytes differentiated from ES cells with 3 or 18 days of Activin A; type: cell-based, human; design: scale not given here; conditions: dual clone 1 hepatocytes, unsorted
Protocol: The H9-ALB-GFP/AFP-Tomato (dual clone 1) were differentiated to hepatocytes using the protocol depicted in FIG. 4. Either 3 day or 18 days of Activin A treatment was used with the rest of the protocol being the same. The cells were not sorted and differentiated for 18 and 33 days (for 3 and 18 day DE respectively).
ES cells were cultured in E8 medium (Reference 2) and were differentiated to hepatocytes following a previously published protocol (Reference 1) with modifications. Briefly, at approximately 50% confluency the ES cells were singularized by accutase and seeded on matrigel coated plate in E6 medium containing 100 ng/ml Activin A (Sigma). They were cultured in the Activin A medium for seven days. From day 8 to day 12 the cells were treated with 25 ng/ml FGF4 (R&D Systems) along with 20 ng/ml BMP2 in E6. During days 13 through 17 the cells were treated with 20 ng/ml HGF (R&D Systems) and 10 ng/ml Oncostatin M (R&D Systems) in E6. Finally, the cells were cultured in E6 containing 0.1 μM Dexamethasone (Sigma) from day 18 to day 22. From day 8 onwards, SB431542 and DAPT were added to the medium to inhibit TGFB and NOTCH respectively at 10 μM final concentration.

[5] = primary human hepatocytes, treated 72 hours
[6] = 3 day Activin A (DE), differentiated 18 days
[7] = 18 day Activin A (DE), differentiated 33 days

CYP1A2 gene expression [1]: 80.54 transcripts per million | CYP2C9 gene expression [1]: 1332.65 transcripts per million | CYP2E1 gene expression [1]: 57.37 transcripts per million | CYP3A11 gene expression [1]: 1409.71 transcripts per million | CYP3A25 gene expression [1]: 61.42 transcripts per million
Compound: O=c1cc(N2CCOCC2)oc2c(-c3ccccc3)cccc12 [LY294002]
ABCC2 gene expression [1]: 232.34 transcripts per million | UGT1A6A gene expression [1]: 48.21 transcripts per million | UGT1A9 gene expression [1]: 15.27 transcripts per million | UGT1A10 gene expression [1]: 0.86 transcripts per million | UGT2B5 gene expression [1]: 196.44 transcripts per million

HBV receptor expression ([2]; PHHs treated 72 hours): upregulated | CYP1A2 gene expression [2, 5]: 1.87 transcripts per million | CYP1B1 gene expression [2, 5]: 3.56 transcripts per million | CYP2C9 gene expression [2, 5]: 73.61 transcripts per million | CYP2D6 gene expression [2, 5]: 1.24 transcripts per million | CYP2E1 gene expression [2, 5]: 4.94 transcripts per million | CYP3A4 gene expression [2, 5]: 22.44 transcripts per million
Compound: O=C(NOC[C@H](O)CO)c1ccc(F)c(F)c1Nc1ccc(I)cc1F [PD0325901]
AFP gene expression [2, 5]: 7.07 transcripts per million | ALB gene expression [2, 5]: 1293.62 transcripts per million | CD81 gene expression [2, 5]: 388.31 transcripts per million | SLCO1B1 gene expression [2, 5]: 151.48 transcripts per million | SLCO1B3 gene expression [2, 5]: 7.24 transcripts per million | UGT1A1 gene expression [2, 5]: 69.02 transcripts per million | UGT1A6 gene expression [2, 5]: 1337.30 transcripts per million | UGT1A9 gene expression [2, 5]: 87.51 transcripts per million | HepG2 viability / cell growth (HepG2 cells): increased cell death and growth arrest

Compound: CO[C@@H]1[C@H](N(C)C(=O)c2ccccc2)C[C@H]2O[C@]1(C)n1c3ccccc3c3c4c(c5c6ccccc6n2c5c31)C(=O)NC4=O [Stauprimide]
expression of AFB (hepatocytes): did not increase expression | expression of albumin (hepatocytes): increased expression | ADH4 RNA-Seq expression [3]: 12.82 | AFP RNA-Seq expression [3]: 2485.61 | ALB RNA-Seq expression [3]: 8513.48 | BAAT RNA-Seq expression [3]: 10.4 | CYP2D6 RNA-Seq expression [3]: 0 TPM | CYP2E1 RNA-Seq expression [3]: 9.6 TPM | HNF4A RNA-Seq expression [3]: 25.97 | SERPINA1 RNA-Seq expression [3]: 10030.14 | SERPINC1 RNA-Seq expression [3]: 42.45 | UGT1A1 RNA-Seq expression [3]: 322.35 | UGT1A6 RNA-Seq expression [3]: 411.32 | UGT1A9 RNA-Seq expression [3]: 47.42 | CYP1A1 RNA-Seq expression ([3]; in TPM): 47.04 | CYP2C9 RNA-Seq expression ([3]; in TPM): 19.63

Compound: Activing A: Activin A, growth factor used to differentiate pluripotent stem cells to definitive endoderm
AFP gene expression [4, 6]: 1663.62 | ALB gene expression [4, 6]: 600.43 | CYP1A1 gene expression [4, 6]: 23.85 | CYP2C9 gene expression [4, 6]: 2.26 | CYP2D6 gene expression [4, 6]: 2.24 | CYP2E1 gene expression [4, 6]: 0 | CYP3A4 gene expression [4, 6]: 0.92 | U6T1A1 gene expression [4, 6]: 3.86 | UGT1A6 gene expression [4, 6]: 1.75 | AFP gene expression [4, 7]: 8635.2 | ALB gene expression [4, 7]: 5129.36 | CYP1A1 gene expression [4, 7]: 80.48 | CYP2C9 gene expression [4, 7]: 76.46 | CYP2D6 gene expression [4, 7]: 3.51 | CYP2E1 gene expression [4, 7]: 0.4 | CYP3A4 gene expression [4, 7]: 33.64 | U6T1A1 gene expression [4, 7]: 66.36 | UGT1A6 gene expression [4, 7]: 23.94
